NC(=O)OCCCc1ccccc1
solubility (mole fraction)
Details | 283.15 K | 288.15 K | 293.15 K | 298.15 K | 303.15 K | 308.15 K | 313.15 K | 318.15 K | 323.15 K
in 2-butanone | 0.0601 | 0.0718 | 0.0829 | 0.0993 | 0.117 | 0.131 | 0.147 | 0.164 | 0.187
in acetone | 0.0652 | 0.0775 | 0.0939 | 0.107 | 0.12 | 0.137 | 0.158 | 0.179 | 0.202
in ethanol | 0.0156 | 0.0178 | 0.0239 | 0.0307 | 0.0392 | 0.0493 | 0.0623 | 0.0808 | 0.1
in ethyl acetate | 0.0493 | 0.0567 | 0.0687 | 0.0803 | 0.0929 | 0.104 | 0.117 | 0.13 | 0.144
in isopropanol | 0.0108 | 0.0149 | 0.0207 | 0.0261 | 0.0339 | 0.0439 | 0.0587 | 0.0769 | 0.0904
in methanol | 0.0202 | 0.0247 | 0.0321 | 0.0396 | 0.0492 | 0.0614 | 0.0752 | 0.1 | 0.118
in methyl acetate | 0.0494 | 0.059 | 0.0719 | 0.0862 | 0.101 | 0.119 | 0.139 | 0.161 | 0.186
in n-butanol | 0.00704 | 0.012 | 0.0198 | 0.0279 | 0.0391 | 0.0492 | 0.0663 | 0.0824 | 0.0972
in n-pentanol | 0.0174 | 0.02 | 0.0239 | 0.031 | 0.0404 | 0.0523 | 0.0668 | 0.081 | 0.0946
in n-propanol | 0.0127 | 0.0155 | 0.0219 | 0.028 | 0.0349 | 0.045 | 0.0589 | 0.0771 | 0.0989
in sec-butanol | 0.0138 | 0.017 | 0.0226 | 0.0299 | 0.0405 | 0.0515 | 0.0679 | 0.092 | 0.118
in water | 8.1e-06 | 1.5e-05 | 3.19e-05 | 5.99e-05 | 0.000107 | 0.000165 | 0.000229 | 0.000293 | 0.000378

Reference: BigSolDB 2.1
